Values of other authors, collected in article PMC10011554, “BET inhibitor trotabresib in heavily pretreated patients with solid tumors and diffuse large B-cell lymphomas” (Nature Communications, 2023).
Read-outs that look alike come from different tables or passages of the source.

What was measured:
[1] = system: relapsed or refractory lymphomas; details: cited from earlier work
[2] = system: U-2932 (ABC DLBCL); set-up: method as in Report CC-90010-Pharm-1018; details: U-2932, Table 2, ref Report CC-90010-Pharm-1018; read-out: absolute IC50, proliferation; cited from earlier work
[3] = system: WSU-DLCL2 (GCB DLBCL); set-up: method as in Report CC-90010-Pharm-1018; details: WSU-DLCL2, Table 2, ref Report CC-90010-Pharm-1018; read-out: absolute IC50, proliferation; cited from earlier work
[4] = system: SU-DHL-4 (GCB DLBCL); set-up: method as in Report CC-90010-Pharm-1018; details: SU-DHL-4, Table 2, ref Report CC-90010-Pharm-1018; read-out: absolute IC50, proliferation; cited from earlier work
[5] = system: OCI-LY-10 (ABC DLBCL); set-up: method as in Report CC-90010-Pharm-1018; details: OCI-LY-10, Table 2, ref Report CC-90010-Pharm-1018; read-out: absolute IC50, proliferation; cited from earlier work
[6] = system: OCI-LY-10 (DOX-R); set-up: method as in Report CC-90010-Pharm-1018; details: Table 2, ref Report CC-90010-Pharm-1018, read-out: absolute IC50, proliferation; cited from earlier work
[7] = system: U-2932 (DOX-R); set-up: method as in Report CC-90010-Pharm-1018; details: Table 2, ref Report CC-90010-Pharm-1018, read-out: absolute IC50, proliferation; cited from earlier work
[8] = system: SU-DHL-4 (DOX-R); set-up: method as in Report CC-90010-Pharm-1018; details: Table 2, ref Report CC-90010-Pharm-1018, read-out: absolute IC50, proliferation; cited from earlier work
[9] = system: WSU-DLCL2 (DOX-R); set-up: method as in Report CC-90010-Pharm-1018; details: Table 2, ref Report CC-90010-Pharm-1018, read-out: absolute IC50, proliferation; cited from earlier work
[10] = set-up: method as in Amorim, 2016; details: ref Amorim, 2016; cited from earlier work
[11] = system: GBM3 GBM PDX; set-up: method as in Unpublished data from Celgene Corporation; details: GBM3, TMZ 50 mg/kg IP x 3 Q2 weeks alone, ref Unpublished data from Celgene Corporation; cited from earlier work
[12] = system: basal cell carcinoma; details: cited from earlier work
[13] = cited from earlier work
[14] = ref ODOMZO European Public Assessment Report

In the case of Cc1noc2c1-c1ccccc1C(c1ccc(Cl)cc1)=N[C@H]2CC(N)=O [CPI-0610], the objective responses ([1]; out of 64 relapsed or refractory lymphomas, ref Blum, 2018) is given as 5 patients.
In the case of COc1cccc2c1C(=O)c1c(O)c3c(c(O)c1C2=O)C[C@@](O)(C(=O)CO)C[C@@H]3O[C@H]1C[C@H](N)[C@H](O)[C@H](C)O1 [Doxorubicin, reference compound], the IC50 [2] is listed as 20 nM, the IC50 [3] is listed as 10 nM and the IC50 [4] is listed as about 10 nM. For the same compound, the IC50 [5] was 41 nM, the IC50 [6] was 3660 nM and the IC50 [7] was 1870 nM. For the same compound, the IC50 [8] was 3570 nM and the IC50 [9] was 3270 nM.
In the case of Cc1sc2c(c1C)C(c1ccc(Cl)cc1)=N[C@@H](CC(=O)Nc1ccc(O)cc1)c1nnc(C)n1-2 [OTX-015], the “Grade 3-4 thrombocytopenia” value [10] is given as 58%, the “median time to thrombocytopenia nadir (Grade 4) from starting treatment” value [10] is given as 18 days and the toxic effect anaemia [10] is given as 91%. The toxic effect diarrhea [10] was 47%, the toxic effect fatigue [10] was 27% and the toxic effect nausea [10] was 24%. For the same compound, the toxic effect neutropenia [10] was 51% and the toxic effect thrombocytopenia [10] was 96%.
In the case of Cc1sc2c(c1C)C(c1ccc(Cl)cc1)=N[C@@H](CC(=O)NCCCN1CCN(C)CC1)c1nnc(C)n1-2 [RG6146], the ORR ([1]; relapsed/refractory MYC-expressing DLBCL patients, ref Caimi, 2017) is given as 11%.
For Cn1nnc2c(C(N)=O)ncn2c1=O [TMZ, temozolomide, reference compound], the TGI [11] is given as 3%.
For Cc1c(C(=O)Nc2ccc(N3C[C@@H](C)O[C@@H](C)C3)nc2)cccc1-c1ccc(OC(F)(F)F)cc1 [sonidegib], the “independently reviewed response rate” value ([12]; locally advanced BCC, ref Migden, 2015a) is given as 58%, the “LaBCC with investigator-assessed responses lasting at least six months” value ([12]; ref Migden, 2015a) is given as 39% and the “subjects discontinued for adverse reactions” value [13, 14] is given as 28%. For the same compound, the “subjects with dose adjustments for adverse reactions” value [13, 14] was 32%.
For CS(=O)(=O)c1ccc(C(=O)Nc2ccc(Cl)c(-c3ccccn3)c2)c(Cl)c1 [vismodegib], the response rate ([12]; locally advanced BCC, ref ERIVEDGE European Public Assessment Report) is given as 42.9%, the “independently reviewed response rate” value ([12]; metastatic BCC, ref ERIVEDGE European Public Assessment Report) is given as 30.3% and the “median duration of response” value ([12]; ref ERIVEDGE European Public Assessment Report) is given as 7.6 months. For the same compound, the “subjects who withdrew from treatment due to adverse events” value ([13]; at least 12 months follow up, ref Bassett-Seguin, 2015) was 36%.
